Assay results from publication PMC6199744, “Development of Chemical Proteomics for the Folateome and Analysis of the Kinetoplastid Folateome” (ACS Infectious Diseases, 2018).
Like-named read-outs stand apart in the source and are kept apart here.

Tested on: T. brucei lysate proteins
Format: binding, Trypanosoma brucei
Conditions: vehicle control = 1

Nc1nc2c(c(=O)[nH]1)N(C=O)C(CNc1ccc(C(=O)N[C@@H](CCC(=O)O)C(=O)O)cc1)CN2 (stereo partly drawn) [LEU, leucovorin]
fold change (protein TB427.06.3630 SPHINGOSINE 1-PHOSPHATE LYASE, PUTATIVE): 0.94 | fold change (protein TB427.06.3670 PAR[…] COMPONENT, PUTATIVE): 0.77 | fold change vs vehicle control (protein TB427.06.4480 VALYL-TRNA SYNTHETASE, PUTATIVE): 1.07 | fold change (protein TB427.06.4740 IMPORTIN-ALPHA RE-EXPORTER PROTEIN, PUTATIVE): 1.22 | fold change (protein TB427.06.700 ALANYL-TRNA SYNTHETASE, PUTATIVE): 0.94 | fold change vs vehicle control (protein TB427.07.1300 PROTEIN DISULFIDE ISOMERASE, PUTATIVE): 1.76 | fold change (protein TB427.07.1420 HY[…], CONSERVED): 0.96 | fold change (protein TB427.07.2340 40S RIBOSOMAL PROTEIN S15, PUTATIVE): 0.96 | fold change vs vehicle control (protein TB427.07.3160 DYNEIN HEAVY CHAIN, CYTOSOLIC, PUTATIVE): 0.86 | fold change (protein TB427.07.3530 HY[…], CONSERVED): 0.87 | fold change (protein TB427.07.4180 FATTY ACID ELONGASE, PUTATIVE): 0.95 | fold change (protein TB427.07.4970 GLUTAMINE SYNTHETASE, PUTATIVE): 0.91 | fold change vs vehicle control (protein TB427.07.7500 THYMINE-7-HYDROXYLASE, PUTATIVE): 0.97 | fold change (protein TB427.08.2060 HY[…], CONSERVED): 0.77 | fold change (protein TB427.08.3490 HY[…], CONSERVED): 1 | fold change (protein TB427.08.3520 HY[…], CONSERVED): 0.94 | fold change (protein TB427.08.3870 HY[…], CONSERVED): 1.66 | fold change (protein TB427.08.5460 FLAGELLAR CALCIUM-BINDING PROTEIN): 1.21 | fold change (protein TB427.08.5760 HY[…], CONSERVED): 0.93 | fold change (protein TB427.08.6390 LYSOPHOSPHOLIPASE, PUTATIVE): 1.26 | fold change (protein TB427.08.650 CATION-TR[…], PUTATIVE): 0.8 | fold change (protein TB427.10.10020 HY[…], CONSERVED): 0.93 | fold change (protein TB427.10.10350 PROTEIN KINASE, PUTATIVE): 0.95 | fold change (protein TB427.10.10360 MICROTUBULE-[…], PUTATIVE): 0.82 | fold change (protein TB427.10.1060 T-COMPLEX PROTEIN 1, DELTA SUBUNIT, PUTATIVE): 1.18 | fold change vs vehicle control (protein TB427.10.10610 PROTEIN TYROSINE PHOSPHATASE, PUTATIVE): 2.13 | fold change vs vehicle control (protein TB427.10.1100 60S RIBOSOMAL PROTEIN L9, PUTATIVE): 1.1 | fold change vs vehicle control (protein TB427.10.11760 PUMILIO/PUF RNA BINDING PROTEIN 6): 0.98 | fold change (protein TB427.10.12710 HEAT SHOCK PROTEIN, PUTATIVE): 2.54 | fold change vs vehicle control (protein TB427.10.12820 HY[…], CONSERVED): 1.13 | fold change (protein TB427.10.14140 PYRUVATE KINASE 1): 1.34 | fold change vs vehicle control (protein TB427.10.14470 INTR[…] PROTEIN IFT140, PUTATIVE): 1.07 | fold change (protein TB427.10.14890 C-TERMINAL MOTOR KINESIN, PUTATIVE): 1.36 | fold change (protein TB427.10.2020 HEXOKINASE): 1.68 | fold change (protein TB427.10.2290 CHAPERONE PROTEIN DNAJ, PUTATIVE): 0.89 | fold change (protein TB427.10.2350 PYRUVATE DEH[…] E3 BINDING PROTEIN, PUTATIVE): 0.89 | fold change (protein TB427.10.4610 […]-MANNOSE SYNTHASE, PUTATIVE): 0.94 | fold change vs vehicle control (protein TB427.10.5810 HY[…], CONSERVED): 2.19 | fold change (protein TB427.10.5840 T[…] 1-BETA, PUTATIVE): 1.21 | fold change (protein TB427.10.5850 HY[…], CONSERVED): 0.84 | fold change (protein TB427.10.6150 […]/BEIGE PROTEIN, PUTATIVE): 0.73 | fold change (protein TB427.10.6310 MAJOR VAULT PROTEIN, PUTATIVE): 0.82 | fold change (protein TB427.10.730 ATP SYNTHASE, PUTATIVE): 0.81 | fold change vs vehicle control (protein TB427.10.7410 SUCCINYL-COA LIGASE GDP-FORMING] BETA-CHAIN, PUTATIVE): 1.13 | fold change vs vehicle control (protein TB427.10.7630 HY[…], CONSERVED): 1.07 | fold change vs vehicle control (protein TB427.10.8230 PROTEIN DISULFIDE ISOMERASE): 2.42 | fold change (protein TB427.10.8910 HY[…], CONSERVED): 0.93 | fold change vs vehicle control (protein TB927.10.12700 PYRUVATE DEHYDROGENASE E1 ALPHA SUBUNIT, PUTATIVE): 0.9 | fold change (protein TB927.10.12740 HY[…], CONSERVED,ZINC FINGER PROTEIN FAMILY MEMEBER, PUTATIVE): 1.1 | fold change (protein TB927.10.12840 MIT[…] PROTEIN, PUTATIVE): 0.92 | fold change vs vehicle control (protein TB927.10.13290 ETHANOLAMINE PHOSPHOTRANSFERASE (EPT)): 0.95 | fold change vs vehicle control (protein TB927.10.14800 PROTEIN KINASE, PUTATIVE): 1.13 | fold change (protein TB927.10.1550 […]-ATP-ASE SUBUNIT 5): 0.94 | fold change vs vehicle control (protein TB927.10.2890 ENOLASE): 1.93 | fold change (protein TB927.10.2980 […]-ATPASE SUBUNIT 11): 0.91 | fold change vs vehicle control (protein TB927.10.4570 […] 2): 1.87 | fold change (protein TB927.10.4690 DYNEIN LIGHT CHAIN, PUTATIVE): 0.96 | fold change (protein TB927.10.5370 40S RIBOSOMAL PROTEIN S10, PUTATIVE): 1 | fold change vs vehicle control (protein TB927.10.540 ATP-DEPENDENT DEAD/H RNA HELICASE, PUTATIVE): 1.4 | fold change (protein TB927.10.5500 HY[…], CONSERVED): 0.99 | fold change vs vehicle control (protein TB927.10.560 40S RIBOSOMAL PROTEINS S11, PUTATIVE): 1.35 | fold change (protein TB927.10.6050 CLATHRIN HEAVY CHAIN): 0.82 | fold change vs vehicle control (protein TB927.10.8030 HY[…], CONSERVED): 0.97 | fold change vs vehicle control (protein TB927.10.8160 HY[…], CONSERVED): 0.94 | fold change (protein TB927.2.100 RETRO[…] SPOT (RHS) PROTEIN, PUTATIVE,RETRO[…] SPOT PROTEIN 1 (RHS1), PUTATIVE): 1.21 | fold change vs vehicle control (protein TB927.2.2440 […]-ATPASE SUBUNIT 6): 1.21 | fold change (protein TB927.2.3800 MRNA […], PUTATIVE): 0.96 | fold change (protein TB927.3.1240 PROTEIN PHOSPHATASE 2A, PUTATIVE): 0.82 | fold change (protein TB927.3.1840 3-OXO-5-ALPHA-STEROID 4-DEHYDROGENASE, PUTATIVE): 0.93 | fold change vs vehicle control (protein TB927.3.2960 INOSINE-ADENOSINE-GUANOSINE-[…]): 2.01 | fold change (protein TB927.3.3190 SERINE/THREONINE-PROTEIN KINASE, PUTATIVE): 0.93 | fold change vs vehicle control (protein TB927.3.3450 ADP-RI[…]-LIKE PROTEIN 3A, PUTATIVE): 2.74 | fold change vs vehicle control (protein TB927.3.3490 HIGH MOBILITY GROUP PROTEIN, PUTATIVE): 1.29 | fold change vs vehicle control (protein TB927.3.5120 HY[…], CONSERVED (Ankyrin repeats (3 copies), putative)): 1.41 | fold change vs vehicle control (protein TB927.3.740 HY[…], CONSERVED): 0.99 | fold change vs vehicle control (protein TB927.4.2740 HY[…], CONSERVED (p25-alpha, putative)): 2.04 | fold change (protein TB927.4.3590 T[…] 1-BETA, PUTATIVE): 1.21 | fold change vs vehicle control (protein TB927.4.3820 HY[…], CONSERVED): 0.99 | fold change (protein TB927.5.1630 HY[…], CONSERVED): 0.83 | fold change vs vehicle control (protein TB927.5.4440 DYNEIN LIGHT CHAIN, PUTATIVE): 1.1 | fold change (protein TB927.6.2200 HY[…], CONSERVED): 0.98 | fold change vs vehicle control (protein TB927.6.3740 HEAT SHOCK 70 KDA PROTEIN, MIT[…], PUTATIVE): 1.13 | fold change (protein TB927.6.4980 40S RIBOSOMAL PROTEIN S14): 0.97 | fold change vs vehicle control (protein TB927.7.1750 60S RIBOSOMAL PROTEIN L7, PUTATIVE): 1.49 | fold change vs vehicle control (protein TB927.7.4470 HY[…], CONSERVED): 1.31 | fold change vs vehicle control (protein TB927.7.7430 ATP SYNTHASE ALPHA CHAIN, MIT[…]): 1.2 | fold change (protein TB927.8.4330 SMALL GTP-BINDING PROTEIN RAB11): 0.97 | fold change (protein TB927.8.4770 SMALL GTP-BINDING PROTEIN RAB18): 0.93 | fold change vs vehicle control (protein TB927.8.4810 PROHIBITIN 1): 0.99 | fold change (protein TB-292 MEMBRANE ASSOCIATED PROTEIN): 0.88
